Measured values: US20220305003A1, “METHODS OF TREATING CANCER WITH AN INHIBITOR OF ZNF827” (CHILDREN'S MEDICAL RESEARCH INSTITUTE, priority 2019, published 2022)

Assays:
Assay type in all cases: cell-based
U-2 OS cells [1] = experiment: Sister chromatid exchange (SCE) assay in U-2 OS; conditions: topotecan 2 μg/mL 1 hr
Protocol: For the SCE assay, 20-25% confluent cells were cultured in fresh media supplemented with 7.5 μM […] (BrdU) and 2.5 μM BrdC (BrdU:BrdC 3:1 ratio; Sigma-Aldrich) for 32-48 hours depending on the mitotic index of the cell line. Cell cultures were treated with 100 ng/mL colcemid for the last 4 hours of incubation to accumulate mitotic cells. Cells were harvested by trypsinisation and centrifugation, and then incubated in hypotonic buffer for 10 minutes at 37° C. Swollen cells were fixed by gradually adding 1 mL of fresh ice-cold fixative (methanol/acetic acid 3:1), mixing by inversion and incubating on ice for 5 minutes. Cells were then collected by centrifugation at 1200 rpm for 8 minutes. 10 mL ice cold fixative was added to resuspend the cells followed by 5 minutes incubation on ice and centrifugation at 1200 rpm for 8 minutes. This fixing step was repeated another two times. Fixed cells were then resuspended in 500-1000 μL of ice-cold fixative, and dropped onto clean, dry microscope slides (HDS Surefrost, 50-100 μL cell solution per slide). To drop chromosomes, a clean dry slide was held over a 75° C. water bath, and the cell solution was dropped from a pipette onto the slide, which was quickly flipped and held close to the surface of the water bath for 5 seconds. […]

HT1080 cells = experiment: Cell cycle analysis by flow cytometry (propidium iodide)
Protocol: For cell cycle analysis, cells were trypsinised, counted and collected by centrifugation at 1000 rpm for 5 minutes. 1×10^6 cells were resuspended in 0.5 mL PBS, then fixed in 5 mL of ice-cold 70% ethanol drop by drop whilst being gently vortexed. The cells were incubated on ice for 30 minutes then stored at −20° C. for 2-7 days until propidium iodide staining. Prior to propidium iodide (Sigma) staining, the ethanol fixed cells were centrifuged at 300×g for 6 minutes to remove ethanol, washed once with PBS, and resuspended in 0.5 mL PBS per 1×10^6 cells. The fixed cells were treated with 0.5 mg of RNase (Sigma) and 25 μg of propidium iodide at 37° C. for 30 minutes, and then allowed to return to room temperature in the dark for 10 minutes. Labelled cells were analysed using the BD FACSCanto Flow Cytometer (BD Biosciences) containing a blue air cooled 488 nm argon laser to excite propidium iodide. Between 10 000-15 000 events were collected at an approximate flow rate of 200 events/second. The forward scatter (FSC, size) and side scatter (SSC, internal granularity) of each cell was recorded. To discriminate and eliminate cell debris and doublets, the pulse area (FL2-A) was plotted against the pulse width (FL2-W). Doublets identified as cells with 4N DNA content and increasing pulse width were eliminated. A histogram displaying the cell counts against the FL2-A was used to calculate the percentage of cells in each cell cycle phase, as well as the percentage of non-viable cells. Data analysis was conducted using BD FACS Diva software (BD Bioscience).

U-2 OS cells [2] = experiment: IncuCyte live cell growth and apoptosis (Nucview488 caspase 3) assay
Protocol: Considering the effects of ZNF827 depletion on DNA replication and the cell cycle, the impact of ZNF827 on cell proliferation and cell viability was examined. Live cell assays were performed on U-2 OS cells in the IncuCyte® to monitor real-time cell proliferation by confluency and cell viability using Nucview488, a fluorescent reporting dye for caspase 3 activity that allows quantitative measurement of apoptotic activity. Cells were treated with topotecan or DMSO control for the first half of the assay and treatments were removed for the remaining time.
Cells were seeded at 20-30% in a 96-well black plate with clear bottom (3603, Corning) and left to adhere at 37° C. with 10% CO2 for at least 3 hours. The media was aspirated and replaced with phenol red free media supplemented 2 μM Nucview® 488 Caspase-3 substrate (Biotium) and placed into the IncuCyte® for baseline imaging without drug treatment. Topotecan 2 μg/mL or DMSO control was added to the wells, and incubated at 37° C. with 10% CO2 for 1 hour. The media was then aspirated, cells were washed carefully once with warm PBS, and the media replaced with phenol red free media supplemented 2 μM Nucview® 488 Caspase-3 substrate (Biotium). The plate was then placed back into IncuCyte®, imaged immediately post drug treatment, and then every 4 hours for 72 to 84 hours in the phase and green channels. Image analysis was performed with the IncuCyte® Zoom software. Cell growth was measured as % confluency over time, and apoptotic activity as green object confluence/area over time.

EdU flow cytometry = conditions: EdU pulse 1 hour
Protocol: Using EdU flow cytometry (5-ethynyl-2′-deoxyuridine) is a thymidine analogue which is incorporated into DNA during active DNA synthesis), the effects of ZNF827 depletion on cell cycle progression, especially on DNA replication, were examined.
EdU flow cytometry was performed with the Click-iT EdU flow cytometry kit (ThermoFisher Scientific) according to manufacturer's instructions. Briefly cells were pulsed with EdU for 1 hour at 37° C. and harvested by trypsinisation and centrifugation at 1000 rpm for 5 minutes. Cells were then fixed and labelled with Alex Fluor 647 with the flow cytometry kit following the manufacturer's protocol. For DNA content labelling, the fixed cells were treated with 0.5 mg of RNase (Sigma) and 25 μg of propidium iodide at 37° C. for 30 minutes. Labelled cells were analysed using the BD FACSCanto Flow Cytometer (BD Biosciences) containing lasers to excite Alexa Fluor 647 labelled EdU and propidium iodide. Between 10 000-15 000 events were collected at an approximate flow rate of 200 events/second. Data analysis was conducted using FlowJo 7.

[3] = agent alone (topotecan 2 μg/mL 1 hr, or 72 hr siRNA knockdown in unchallenged cells)
[4] = agent alone (topotecan 2 μg/mL 1 hour then removed, or ZNF827 depletion with DMSO)
[5] = agent alone (topotecan 2 μg/mL, or ZNF827 depletion vs scrambled control)

CC[C@@]1(O)C(=O)OCc2c1cc1n(c2=O)Cc2cc3c(CN(C)C)c(O)ccc3nc2-1 [topotecan]
sister chromatid exchanges (SCEs) (U-2 OS cells [1]): drastic induction of SCEs | cell cycle profile (HT1080 cells; [3]): distinct G2/M arrest | cell proliferation (% confluency over time) (U-2 OS cells [2]; [4]): effectively inhibited cell growth | apoptotic activity (Nucview488 caspase 3) (U-2 OS cells [2]; [5]): much greater apoptotic activity

siZNF827: Stealth RNAi siRNA ZNF827HSS135819 duplex oligoribonucleotides (Invitrogen), SEQ ID NO: 12 and 13 (chain 1 GGGCAGUCUUCUGGCUGAGAAAUCA; chain 2 UGAUUUCUCAGCCAGAAGACUGCCC; listed as RNA, further chemistry not given here)
cell cycle profile (HT1080 cells; 72 hr siRNA knockdown in conjunction with topotecan 2 μg/mL 1 hr): conspicuous G1 arrest while reducing the G2/M arrest | cell cycle profile (HT1080 cells; [3]): subtle increase in S phase cells accompanied by a reduction in G2/M cells | cell cycle distribution (EdU) (EdU flow cytometry): conspicuous G1 arrest and a significant reduction of S phase cells | cell proliferation (% confluency over time) (U-2 OS cells [2]; ZNF827 depletion in conjunction with topotecan 2 μg/mL): completely abrogated cell proliferation | cell proliferation (% confluency over time) (U-2 OS cells [2]; [4]): reduced cell proliferation, surprisingly to a similar efficacy as topotecan | apoptotic activity (Nucview488 caspase 3) (U-2 OS cells [2]; [5]): significantly higher apoptotic activity compared to scrambled control | apoptotic activity (Nucview488 caspase 3) (U-2 OS cells [2]; combination of ZNF827 depletion and topotecan, compared with topotecan alone): exceeded markedly
